Assay results as given in patent US5767261A, “Lepidopteran GABA gated chloride channel and nucleic acids encoding subunits thereof” (priority 1995, dated 1998).

What was measured:
[1] = target: T1, Heliothis GABA gated chloride channel (Heliothis virescens, UniProt O18468); test: Whole cell patch clamp recordings of permanently transformed Drosophila SH1 cell lines (pIVY17); format: cell-based; conditions: SH1 cells, induced by 10 μM cadmium chloride for 48 hours, FIG. 7
T1 sequence (O18468 30-496): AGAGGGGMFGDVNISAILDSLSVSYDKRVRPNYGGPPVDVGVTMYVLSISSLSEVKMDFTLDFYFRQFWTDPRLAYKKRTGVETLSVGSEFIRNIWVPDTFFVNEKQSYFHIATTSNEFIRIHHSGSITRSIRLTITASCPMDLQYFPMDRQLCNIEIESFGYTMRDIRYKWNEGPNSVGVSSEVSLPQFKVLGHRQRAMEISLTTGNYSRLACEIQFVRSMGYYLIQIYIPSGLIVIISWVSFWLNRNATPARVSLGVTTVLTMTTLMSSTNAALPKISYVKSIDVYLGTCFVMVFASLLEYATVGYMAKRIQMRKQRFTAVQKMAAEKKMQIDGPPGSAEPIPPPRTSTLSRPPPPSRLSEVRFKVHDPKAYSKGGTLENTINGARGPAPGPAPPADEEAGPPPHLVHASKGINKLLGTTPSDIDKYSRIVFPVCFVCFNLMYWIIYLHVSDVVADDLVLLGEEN
From the text: To verify that expression of cDNA encoding the GABA gated chloride channel subunit results in production of a functional GABA gated chloride channel, hole cell voltage clamp recordings were made at thirty hours post infection. […] The results presented in this example indicate that expression of DNA encoding a lepidopteran GABA gated chloride channel subunit in Sf9 cells results in a functional GABA gated chloride channel.
Drosophila cell line SH1 was transformed with plasmid pIVY17 using lipofectin obtained from GIBCO-BRL following the manufacturer's instructions. Selection of insect cell transformants was accomplished with hygromycin at a concentration of 200 μg/ml. The Heliothis GABA gated chloride channel expression was induced by 10 μM cadmium chloride added to the growth medium for 48 hours prior to electrophysiological readings. Whole cell voltage patch clamping recordings were performed on a number of cell lines as described in Example III.

[2] = target: T2, Heliothis virescens cyclodiene resistant GABA gated chloride channel (Heliothis virescens, UniProt O18468); test: Whole cell voltage clamp recordings of Sf9 cells infected with recombinant baculovirus Elise13; format: cell-based; conditions: 1×10^-3 M GABA, thirty hours post infection, FIG. 3
T2 sequence (O18468 30-496): T1 sequence (O18468 30-496)
From the text: A BamHI/XhoI DNA fragment from plasmid pIVY12 described in Example 1 containing the complete coding sequence of the Heliothis virescens cyclodiene resistant GABA gated chloride channel subunit was cloned into the baculovirus transfer vector pBacPac8 (Clontech). The resulting vector, pIVY13, contains cDNA encoding the Heliothis virescens cyclodiene resistant GABA gated chloride channel subunit under the control of the polyhedrin promoter. The 8.0 kb vector, PIVY13, consists of the Heliothis sequence of pIVY12 cloned into the BamHI/XhoI site of pBacPac8 and is depicted in FIG. 2. Spodoptera frugiperda 9 (Sf9) cells were cotransfected by pIVY13 and wild type Autographa californica nuclear polyhedrosis virus (AcMNPV) using the lipofectin procedure. In transfer vector pIVY13, flanking AcMNPV sequences allowed recombination with the viral DNA, thus resulting in the transfer of the expression cassette of the Heliothis cDNA and the polyhedrin promoter to the polyhedrin locus of the viral DNA. The recombinant virus thus generated was designated Elise13. Viral stocks of Elise13 were generated by standard procedures described by O'Reilly et al. (1992) Baculovirus Expression Vectors, A Laboratory Manual, W. H. Freeman and Company. Sf9 cells were infected with Elise13 at a multiplicity of infection of 5 plaque forming units (PFU) per cell by standard procedures. […]

[3] = target: T3, Heliothis virescens cyclodiene resistant chloride channel (Heliothis virescens, UniProt O18468); test: Two-electrode voltage clamp recordings of Xenopus oocytes injected with pIVY12 mRNA; format: cell-based; conditions: for gross effect of known agonist / antagonist on the channel: similar assays
T3 construct: in vitro transcribed pIVY12 mRNA injected into Xenopus oocytes, homomeric channel
T3 sequence (O18468 30-496): T1 sequence (O18468 30-496)
Protocol: (§1) Messenger RNA was produced from the cDNA template of pIVY12 described in Example I by in vitro transcription with the Ambion mMESSAGE mMACHINE IN VITRO TRANSCRIPTION KIT™ (Ambion, Inc.) The mRNA was injected into oocytes by the following procedure.
(§2) Frogs were anesthetized in a 2 gram/liter solution of 3-amino benzoic acid ethyl ester for thirty minutes, after which oocytes were surgically removed from the abdominal cavity. Follicles were digested by collagenase treatment under sterile conditions by standard methods. Oocytes were injected with 50 nl of mRNA by glass electrodes.
(§3) Following a 24 to 48 hour incubation, two-electrode voltage clamp recordings were made. Recordings were made using a Dagan TEV200 voltage clamp interfaced with a MacLab4 data acquisition system running the MacLab Chart data acquisition/analysis software. Oocytes were positioned under a dissecting scope under constant perfusion with ND-96 standard saline using a Razel syringe perfusion pump, model A99-FY at 93.9 cc/hr. Glass electrodes (A-M Systems, Inc., 1.5 mm×0.86 mm) were filled with 3M KCl and resistance ([…]) was measured to be between 0.7 and 1.5 mega ohms. Both electrodes were inserted into the oocyte at opposite sides, the resting potential was recorded and the voltage clamp turned on. Oocytes were held at a resting potential between -70 and -50 mV. Control responses of GABA were obtained by stopping the perfusion of saline and perfusing with a known concentration of GABA in ND-96 with 0.1% DMSO. The average of several GABA applications was taken as the maximal chloride current for that particular GABA dose. The effect of 10 micromolar GABA on the lepidopteran GABA gated chloride channel expressed in Xenopus oocytes is depicted in FIG. 4. […] In particular, the Heliothis virescens cyclodiene resistant chloride channel is about ten times less sensitive to block by fipronil than the Drosophila Rdl chloride channel.

[4] = test system: Heliothis virescens cyclodiene resistant chloride channel; test: as above; format: cell-based; conditions: agonized by GABA
Protocol: as §1, §2, §3

[5] = target: T4, Drosophila Rdl chloride channel (Drosophila melanogaster, UniProt P25123); conditions: 10 micromoles of picrotoxinin; cited from earlier work
T4 sequence (P25123 45-606): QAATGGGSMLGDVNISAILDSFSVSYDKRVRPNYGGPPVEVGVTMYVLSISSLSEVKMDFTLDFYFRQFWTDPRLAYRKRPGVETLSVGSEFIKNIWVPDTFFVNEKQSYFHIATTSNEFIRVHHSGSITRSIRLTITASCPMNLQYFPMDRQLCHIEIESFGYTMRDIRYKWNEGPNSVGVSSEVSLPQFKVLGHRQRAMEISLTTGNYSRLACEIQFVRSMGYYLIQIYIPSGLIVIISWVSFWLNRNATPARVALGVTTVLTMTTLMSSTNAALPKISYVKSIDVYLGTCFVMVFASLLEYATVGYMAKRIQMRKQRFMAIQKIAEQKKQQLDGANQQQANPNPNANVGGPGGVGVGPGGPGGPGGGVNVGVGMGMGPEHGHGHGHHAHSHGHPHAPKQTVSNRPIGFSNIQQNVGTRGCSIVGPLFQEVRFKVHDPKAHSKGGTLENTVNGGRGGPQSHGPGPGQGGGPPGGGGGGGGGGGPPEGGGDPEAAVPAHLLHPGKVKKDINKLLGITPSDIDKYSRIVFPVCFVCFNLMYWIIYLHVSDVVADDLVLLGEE

With `NCCCC(=O)O` [GABA, gamma-amino butyric acid] the “functional effect on the GABA gated chloride channel (flux of chloride ion)” value [1] was “exhibits the predicted gross functional effect”, the “functional effect on the GABA gated chloride channel (flux of chloride ion)” value [2] was “exhibits the gross functional effect on the GABA gated chloride channel” and the “functional effect on the GABA gated chloride channel” value ([3]; 10 micromolar GABA, FIG. 4) was “exhibits the predicted gross functional effect”.
In the case of `N#Cc1nn(-c2c(Cl)cc(C(F)(F)F)cc2Cl)c(N)c1[S+]([O-])C(F)(F)F` (stereo not drawn) [fipronil], the “reduction of sensitivity to block relative to Drosophila Rdl chloride channel” value [4] is reported as “about ten”.
With `NCc1cc(=O)[nH]o1` [muscimol] the “gross effect of known agonist / antagonist on the channel” value [3] was “exhibited the predicted gross effects”.
For `C=C(C)[C@@H]1[C@H]2OC(=O)[C@@H]1[C@]1(O)C[C@H]3O[C@]34C(=O)O[C@H]2[C@]14C` [picrotoxinin], the “block of Drosophila Rdl” value [5] is listed as “nearly complete block”, the “block of the Heliothis channel” value ([3]; 10 micromoles of picrotoxinin) is listed as “fifty” and the “gross effect of known agonist / antagonist on the channel” value [3] is listed as “exhibited the predicted gross effects”. The “reduction of sensitivity to block relative to Drosophila Rdl chloride channel” value [4] was “more than 100 times”.
